# Laboratory results as given in patent publication US20250000849A1, “COMPOSITE COMPOSITION CONTAINING ANGIOTENSIN RECEPTOR BLOCKER AND SGLT2 INHIBITOR” (MEDITAKE CO., LTD., priority 2021, published 2025).
# What was measured:
# Type in all cases: in vivo
# Set-up in all cases: unit not given here
# [1] = system: spontaneously hypertensive rat (SHR); experiment: Blood pressure-lowering effect of combined administration of angiotensin receptor blocker and dapagliflozin in SHR; details: Dapagliflozin 1 mg/kg/day
# Experimental: (§1) The animals were housed in a room with a temperature of […] relative humidity of 50±10%, and a 12-hour light/dark cycle, and food and water were provided ad libitum.
# (§2) All data are expressed as mean±S.E.M. Blood pressure measurements were schematized using GraphPad Prism 9 (GraphPad Software Inc., San Diego, CA).
# Blood pressure was measured daily immediately before (0 hr) and 4 hours after (4 hr) dosing while administering the drug for a total of 19 days, and the recovery of blood pressure was monitored during a 1-week recovery period after the end of administration.
# [2] = system: spontaneously hypertensive rat (SHR); experiment: Blood pressure-lowering effect of combined administration of angiotensin receptor blocker and empagliflozin in SHR; details: Empagliflozin 1 mg/kg/day
# Experimental: as §1, §2
# Blood pressure was measured daily immediately before (0 hr) and 4 hours after (4 hr) dosing while administering the drug for a total of 19 days, and the recovery of blood pressure was monitored during a 1-week recovery period after the end of administration. Specifically, the animals were divided into two groups to evaluate the blood pressure response when fimasartan (Group 1) or dapagliflozin (Group 2) was administered alone, and to evaluate the blood pressure response to the addition of the other drugs in sequentially increasing doses, and the results are shown in FIG. 2.
# The experiments were conducted in the same manner as in Example 3 above, but using empagliflozin as an SGLT2 inhibitor.
# The angiotensin receptor blockers, fimasartan, azilsartan, and olmesartan were divided by dose, and each administered alone or in combination with empagliflozin, and the results of blood pressure measurements in each experimental group are shown in Table 4 and FIGS. 7 to 9 below.
# [3] = system: spontaneously hypertensive rat (SHR); experiment: as above; details: Empagliflozin 1 mg/kg/day, Day 14 (4 h)
compound,measurement,setting,value
"CCOc1ccc(Cc2cc([C@@H]3O[C@H](CO)[C@@H](O)[C@H](O)[C@H]3O)ccc2Cl)cc1 [Dapagliflozin, dapagliflozin]","Blood pressure, Mean",[1]; Day 1 (pre-dose),100.0
same,"Blood pressure, Mean",[1]; Day 7 (4 h),101.2
same,"Blood pressure, Mean",[1]; Day 14 (4 h),96.5
same,"Blood pressure, Mean",[1]; Recovery,105.5
"OC[C@H]1O[C@@H](c2ccc(Cl)c(Cc3ccc(O[C@H]4CCOC4)cc3)c2)[C@H](O)[C@@H](O)[C@@H]1O [Empagliflozin, empagliflozin]","Blood pressure, Mean",[2]; Day 1 (pre-dose),100.0
same,"Blood pressure, Mean",[2]; Day 7 (4 h),97.1
same,"Blood pressure, Mean",[2]; Recovery,101.8
same,"Blood pressure, Mean",[3],96.4
